Structures are written as SMILES.

Results on 24 compounds are retold here after patent US9073830B2 (Hyundai Pharm Co., Ltd., priority 2011, dated 2015).

The target in one experiment is T1, human 11β-HSD1 (Homo sapiens, UniProt P28845).
T1 construct: 100 ug/ml human/mouse liver microsomes; from tissue; host or cells: human liver microsomes
Briefly: Enzyme activity analysis on human 11β-HSD1 (HTRF cortisol, liver microsomes). The format is biochemical. The note with it: first value of cell. The essentials:
(§1)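 Cortisol generated by mouse or human liver microsome 11β-HSD1 during 2 h at 37° C., measured by HTRF competition (cryptate anti-cortisol antibody, d2-cortisol, 2 h room temperature) against a cortisol standard curve. IC50 from percent inhibition versus no-compound control.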

The next experiment concerns the target T2, glucocorticoid receptor (Homo sapiens, UniProt P04150).
T2 construct: 4× GR-LBD up to 4 nM, and 4× Tb anti-GST Antibody up to 8 nM; purchased Invitrogen PV6040
T2 sequence (P04150 524-758 limits assumed): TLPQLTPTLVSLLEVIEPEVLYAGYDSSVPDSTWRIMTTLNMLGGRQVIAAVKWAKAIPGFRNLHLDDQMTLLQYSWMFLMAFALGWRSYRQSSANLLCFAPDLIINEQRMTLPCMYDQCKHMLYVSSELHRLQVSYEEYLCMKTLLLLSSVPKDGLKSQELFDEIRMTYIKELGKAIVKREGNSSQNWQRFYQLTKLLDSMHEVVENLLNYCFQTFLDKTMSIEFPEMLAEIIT
Briefly: Competitive binding of glucocorticoid receptor (LanthaScreen TR-FRET). The note with it: final concentration 10 uM. Here is the method: In order to confirm the selective inhibitory ability of 11β-HSD1 inhibitor, competitive binding between 11β-HSD1 inhibitor and glucocorticoid ligand was tested by using LanthaScreen TR-FRET Glucocorticoid Receptor Competitive Binding Assay (Invitrogen, PV6040). The test material was dissolved in DMSO (Sigma, 276855) up to a 100× concentration of its final concentration (10 uM), and then Complete Nuclear Receptor Buffer F (1× stabilizing peptide, 5 mM DTT, Nuclear Receptor Buffer F) was used to dilute the test material up to a concentration of 2×, 4× Fluormone™ GS1 Green up to 20 nM, 4× GR-LBD up to 4 nM, and 4× Tb anti-GST Antibody up to 8 nM.
In order to obtain 60 μl of a final product through a reaction, on a 96-well plate, 2× test material 30 μl, 4× Fluormone™ GS1 Green 15 μl, and 4× GR-LBD/Tb anti-GST Antibody 15 μl were mixed, and reacted for 1 hour. In a positive control group, instead of the test material, Dexamethasone (Sigma, D1756), known as a ligand for glucocorticoid receptor, was used, and in a maximum active control group, DMSO was used, instead of the test material. In a negative control group, instead of the test material, DMSO was used, instead of Fluormone™ GS1 Green, Complete Nuclear Receptor Buffer F was used. On a 384-well white plate, 20 μl each was plated. By using Time-Resolved program in Flexstation3, a fluorescence value was read after excitation ([…]), emission (515 nM/486 nM), Delay time (100 μs), and Integration time (1500 μs) were programmed. By using the obtained value, a value of 515 nM/486 nM was calculated, from which the value in the negative control group was subtracted. The degree of binding of the test material to glucocorticoid receptor of was calculated by the active value of the test material with respect to the active value (100%) in the maximum active control group.

The next experiment deals with T3, mouse 11β-HSD1 (Mus musculus, UniProt P50172).
T3 construct: 100 ug/ml human/mouse liver microsomes; from tissue; host or cells: mouse liver microsomes
Nature of the experiment: Enzyme activity analysis on mouse 11β-HSD1 (HTRF cortisol, liver microsomes). Format: biochemical. The note with it: second value of cell. The method in brief: as §1

T3 sequence (P50172 whole entry): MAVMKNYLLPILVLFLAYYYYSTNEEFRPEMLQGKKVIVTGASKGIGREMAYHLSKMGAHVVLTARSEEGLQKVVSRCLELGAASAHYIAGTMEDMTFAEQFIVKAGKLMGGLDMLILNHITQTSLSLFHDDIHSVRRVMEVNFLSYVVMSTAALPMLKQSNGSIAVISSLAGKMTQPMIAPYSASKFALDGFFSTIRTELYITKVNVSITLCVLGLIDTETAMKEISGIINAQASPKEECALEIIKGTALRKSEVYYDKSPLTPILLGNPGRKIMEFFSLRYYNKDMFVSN
T1 sequence (P28845 whole entry): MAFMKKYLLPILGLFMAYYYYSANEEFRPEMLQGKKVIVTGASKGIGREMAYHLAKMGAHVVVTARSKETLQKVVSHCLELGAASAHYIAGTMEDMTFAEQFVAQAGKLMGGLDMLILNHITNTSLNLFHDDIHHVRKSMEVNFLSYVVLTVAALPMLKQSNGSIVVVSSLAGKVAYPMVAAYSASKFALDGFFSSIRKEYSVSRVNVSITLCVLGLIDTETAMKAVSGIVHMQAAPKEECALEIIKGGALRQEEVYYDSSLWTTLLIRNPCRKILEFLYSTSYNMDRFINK

With `CC(C)(NS(=O)(=O)c1cccc(Cl)c1Cl)C(=O)NC1C2CC3CC1CC(C(N)=O)(C3)C2` (stereo not drawn) [compound 87, N-4-(2-(2,3-dichlorophenylsulfonamido)-2-methylpropanamido)adamantane-1-carboxyamide], the IC50 against human 11β-HSD1 stood at 0.005 µM; against mouse 11β-HSD1 it was 0.007 µM. Also, the “binding to glucocorticoid receptor” value on glucocorticoid receptor is given as “did not bind to glucocorticoid receptor”.
With `Cc1c(Cl)cccc1S(=O)(=O)NC(C)(C)C(=O)NC1C2CC3CC1CC(C(N)=O)(C3)C2` (stereo not drawn) [compound 97, N-4-(2-(2-methyl-3-chlorophenylsulfonamido)-2-methylpropanamido)adamantane-1-carboxyamide], the values for the 50% inhibitory concentration (IC50) on human 11β-HSD1 and against mouse 11β-HSD1 were 0.005 µM and 0.01 µM, respectively. Also, the “binding to glucocorticoid receptor” value at glucocorticoid receptor is “did not bind to glucocorticoid receptor”.
The like results for `CC(C)(NS(=O)(=O)c1ccccc1Br)C(=O)NC1C2CC3CC1CC(C(N)=O)(C3)C2` (stereo not drawn) [compound 84, N-4-(2-(2-bromophenylsulfonamido)-2-methylpropanamido)adamantane-1-carboxyamide] were, in that order, 0.011 µM, 0.008 µM and “did not bind to glucocorticoid receptor”.
For `CC(C)(NS(=O)(=O)c1ccccc1Cl)C(=O)NC1C2CC3CC1CC(C(N)=O)(C3)C2` (stereo not drawn) [compound 83, N-4-(2-(2-chlorophenylsulfonamido)-2-methylpropanamido)adamantane-1-carboxyamide], in that order: 0.009 µM, 0.018 µM and “did not bind to glucocorticoid receptor”.
On to `CC(C)(NS(=O)(=O)c1c(F)cccc1F)C(=O)NC1C2CC3CC1CC(C(N)=O)(C3)C2` (stereo not drawn) [compound 89, N-4-(2-(2,6-difluorophenylsulfonamido)-2-methylpropanamido)adamantane-1-carboxyamide], for which the “binding to glucocorticoid receptor” value on glucocorticoid receptor is given as “did not bind to glucocorticoid receptor”.
The compound `CC(C)(NS(=O)(=O)c1ccccc1F)C(=O)NC1C2CC3CC1CC(C(N)=O)(C3)C2` (stereo not drawn) [compound 85, N-4-(2-(2-fluorophenylsulfonamido)-2-methylpropanamido)adamantane-1-carboxyamide] gave an IC50 against human 11β-HSD1 of 0.039 µM. Further, on glucocorticoid receptor, the “binding to glucocorticoid receptor” value is reported as “did not bind to glucocorticoid receptor”.
As to `CC(C)(NS(=O)(=O)c1ccccc1OC(F)(F)F)C(=O)NC1C2CC3CC1CC(C(N)=O)(C3)C2` (stereo not drawn) [compound 90, N-4-(2-(2-trifluoromethoxyphenylsulfonamido)-2-methylpropanamido)adamantane-1-carboxyamide], the values for the IC50 against human 11β-HSD1 and on mouse 11β-HSD1 were 0.017 µM and 0.03 µM, respectively. In addition, at glucocorticoid receptor, the “binding to glucocorticoid receptor” value is on record as “did not bind to glucocorticoid receptor”.
The like results for `Cc1ccccc1S(=O)(=O)NC(C)(C)C(=O)NC1C2CC3CC1CC(C(N)=O)(C3)C2` (stereo not drawn) [compound 104, N-4-(2-(2-methylphenylsulfonamido)-2-methylpropanamido)adamantane-1-carboxyamide] were, in that order, 0.014 µM, 0.046 µM and “did not bind to glucocorticoid receptor”.
`NC(=O)C12CC3CC(C1)C(NC(=O)C1(NS(=O)(=O)c4ccccc4Cl)CCCCC1)C(C3)C2` (stereo not drawn) [compound 179, N-4-(1-(2-chlorophenylsulfonamido)cyclohexanecarboxyamido)adamantane-1-carboxyamide]: the IC50 against human 11β-HSD1 was 0.008 µM; against mouse 11β-HSD1, 0.037 µM.
For `Cc1ccc(S(=O)(=O)NC(C)(C)C(=O)NC2C3CC4CC2CC(C(N)=O)(C4)C3)cc1[N+](=O)[O-]` (stereo not drawn) [compound 114, N-4-(2-(3-nitro-4-methylphenylsulfonamido)-2-methylpropanamido)adamantane-1-carboxyamide], in that order: 0.093 µM and 0.207 µM.
For `CC(C)(NS(=O)(=O)c1c(Cl)cc(Cl)cc1Cl)C(=O)NC1C2CC3CC1CC(C(N)=O)(C3)C2` (stereo not drawn) [compound 112, N-4-(2-(2,4,6-trichlorophenylsulfonamido)-2-methylpropanamido)adamantane-1-carboxy amide], the IC50 on human 11β-HSD1 worked out at 0.024 µM; against mouse 11β-HSD1, 0.011 µM.
With `NC(=O)C12CC3CC(C1)C(NC(=O)C1(NS(=O)(=O)c4ccc([N+](=O)[O-])c(C(F)(F)F)c4)CCC1)C(C3)C2` (stereo not drawn) [compound 147, N-4-(1-(3-trifluoromethyl-4-nitrophenylsulfonamido)cyclobutanecarboxyamido)adamantane-1-carboxyamide], the 50% inhibitory concentration (IC50) against human 11β-HSD1 was determined as 1.3 µM; on mouse 11β-HSD1 it was 0.505 µM.
The like results for `O=C(NC1C2CC3CC(C2)CC1C3)C1(NS(=O)(=O)c2cccc3cccnc23)CCC1` (stereo not drawn) [compound 141, N-(adamantane-2-yl)-1-(quinoline-8-sulfonamido)cyclobutanecarboxyamide] were, in that order, 0.139 µM and 0.208 µM.
As for `CC(C)(NS(=O)(=O)c1ccc(F)cc1Br)C(=O)NC1C2CC3CC1CC(C(N)=O)(C3)C2` (stereo not drawn) [compound 101, N-4-(2-(2-bromo-4-fluorophenylsulfonamido)-2-methylpropanamido)adamantane-1-carboxyamide], the results for the IC50 on human 11β-HSD1 and on mouse 11β-HSD1 were 0.009 µM and 0.014 µM, respectively.
For `CCN(C(C)(C)C(=O)NC1C2CC3CC1CC(C(N)=O)(C3)C2)S(=O)(=O)c1cccc(Cl)c1C` (stereo not drawn) [compound 215], in that order: 0.004 µM and 0.284 µM.
The like results for `CC(C)(NS(=O)(=O)c1ccccc1OC(F)(F)F)C(=O)NC1C2CC3CC(C2)CC1C3` (stereo not drawn) [compound 25, N-(adamantane-2-yl)-2-methyl-2-(2-(trifluoromethoxy)phenylsulfonamido)propanamide] were, in that order, 0.045 µM and 0.42 µM.
Consider `CC(C)(NS(=O)(=O)c1c(Cl)cccc1Cl)C(=O)NC1C2CC3CC(C2)CC1C3` (stereo not drawn) [compound 45, N-(adamantane-2-yl)-2-methyl-2-(2,6-dichlorophenylsulfonamido)propanamide], for which the IC50 came out at 0.009 µM at human 11β-HSD1 and 0.02 µM against mouse 11β-HSD1.
With `O=C(NC1C2CC3CC(C2)CC1C3)C1(NS(=O)(=O)c2ccccc2)CCC1` (stereo not drawn) [compound 139], the IC50 against human 11β-HSD1 stood at 0.547 µM; against mouse 11β-HSD1, 0.178 µM.
For `CN(C(C)(C)C(=O)NC1C2CC3CC1CC(C(N)=O)(C3)C2)S(=O)(=O)c1cccc(Cl)c1Cl` (stereo not drawn) [compound 198], in that order: 0.008 µM and 0.003 µM.
In the case of `CC(C)(NS(=O)(=O)c1ccc(F)cc1)C(=O)NC1C2CC3CC(C2)CC1C3` (stereo not drawn) [compound 2, N-(adamantane-2-yl)-2-methyl-2-(4-fluorophenylsulfonamido)propanamide], the 50% inhibitory concentration (IC50) was found to be 0.1 µM at human 11β-HSD1 and 0.888 µM against mouse 11β-HSD1.
For `CN(C(C)(C)C(=O)NC1C2CC3CC1CC(O)(C3)C2)S(=O)(=O)c1ccccc1F` (stereo not drawn) [compound 202, N-(5-hydroxyadamantane-2-yl)-2-(2-fluoro-N-methylphenylsulfonamido)-2-methylpropanamide], in that order: 0.011 µM and 0.208 µM.
Take `CC(C)(NS(=O)(=O)c1ccccc1[N+](=O)[O-])C(=O)NC1C2CC3CC(C2)CC1C3` (stereo not drawn) [compound 43, N-(adamantane-2-yl)-2-methyl-2-(2-nitrophenylsulfonamido)propanamide]: the IC50 is 0.016 µM against human 11β-HSD1 and 0.085 µM against mouse 11β-HSD1. Also, at glucocorticoid receptor, the “binding to glucocorticoid receptor” value was “did not bind to glucocorticoid receptor”.
Consider `CC(C)(NS(=O)(=O)c1cccnc1Cl)C(=O)NC1C2CC3CC1CC(C(N)=O)(C3)C2` (stereo not drawn) [compound 96, N-4-(2-(2-chloropyridine-3-sulfonamido)-2-methylpropanamido)adamantane-1-carboxyamide], for which the IC50 against human 11β-HSD1 was 0.223 µM; against mouse 11β-HSD1 it was 0.289 µM.
Regarding `NC(=O)C12CC3CC(C1)C(NC(=O)C1(NS(=O)(=O)c4cccc5cccnc45)CCCCC1)C(C3)C2` (stereo not drawn) [compound 182, N-4-(1-(quinoline-8-sulfonamido)cyclohexanecarboxyamido)adamantane-1-carboxyamide], the IC50 against human 11β-HSD1 is 0.018 µM; on mouse 11β-HSD1, 0.006 µM.
